Data published in patent publication US7405205B2, “Antitumor antisense sequences directed against R1 and R2 components of ribonucleotide reductase” (Lorus Therapeutics Inc., priority 1996, dated 2008).

How the values were obtained:
Assay in all cases: Drug sensitivity by relative colony forming efficiency
Assay type in all cases: cell-based, mouse
[1] = test system: N/R2+ASR2 cells (NIH-3T3, R2 and R2 antisense vectors)
[2] = test system: B3/SH cells (BALB/c 3T3, empty vector)
[3] = test system: N/R2-4 cells (NIH-3T3, R2 expression vector)
[4] = test system: RP6/ASR2 cells (RP6 with R2 antisense vector)
[5] = test system: RP3/SH cells (10T½, H-ras and mutant p53)
[6] = test system: B3/mR2 cells (BALB/c 3T3, R2 expression vector)
[7] = test system: RP3/ASR2 cells (RP3 with R2 antisense vector)
[8] = test system: B3/R2c2 cells (clone of B3/mR2)
[9] = test system: RP6/SH cells (10T½, H-ras and mutant p53)
[10] = test system: N/SH cells (NIH-3T3, empty vector)

Structure (SMILES): NC(=O)NO [Hydroxyurea, hydroxyurea]
- Relative Colony Forming Efficiencies ([1]; Hydroxyurea 0.3 mM): 0.49 ± 0.34 × 10^4
- Relative Colony Forming Efficiencies ([1]; Hydroxyurea 0.4 mM): 0.14 ± 0.14 × 10^4
- Relative Colony Forming Efficiencies ([2]; Hydroxyurea 0.1 mM): 3.3 ± 1.4 × 10^4
- Relative Colony Forming Efficiencies ([2]; Hydroxyurea 0.4 mM): 0.17 ± 0.19 × 10^4
- Relative Colony Forming Efficiencies ([2]; Hydroxyurea 0.5 mM): 0.21 ± 0.14 × 10^4
- Relative Colony Forming Efficiencies ([2]; Hydroxyurea 0.6 mM): 0.41 ± 0.22 × 10^4
- Relative Colony Forming Efficiencies ([2]; Hydroxyurea 0.8 mM): 0.19 ± 0.62 × 10^4
- Relative Colony Forming Efficiencies ([3]; Hydroxyurea 0.3 mM): 46.1 ± 9.8 × 10^4
- Relative Colony Forming Efficiencies ([3]; Hydroxyurea 0.4 mM): 18.0 ± 6.7 × 10^4
- Relative Colony Forming Efficiencies ([4]; Hydroxyurea 0.1 mM): 43.8 ± 12.3 × 10^4
- Relative Colony Forming Efficiencies ([4]; Hydroxyurea 0.2 mM): 8.6 ± 2.5 × 10^4
- Relative Colony Forming Efficiencies ([4]; Hydroxyurea 0.3 mM): 4.5 ± 1.1 × 10^4
- Relative Colony Forming Efficiencies ([4]; Hydroxyurea 0.4 mM): 1.2 ± 0.5 × 10^4
- Relative Colony Forming Efficiencies ([4]; Hydroxyurea 0.5 mM): 1.8 ± 0.9 × 10^4
- Relative Colony Forming Efficiencies ([4]; Hydroxyurea 0.6 mM): 1.5 ± 0.7 × 10^4
- Relative Colony Forming Efficiencies ([4]; Hydroxyurea 0.8 mM): 0.4 ± 0.3 × 10^4
- Relative Colony Forming Efficiencies ([5]; Hydroxyurea 0.1 mM): 263.6 ± 19.3 × 10^4
- Relative Colony Forming Efficiencies ([5]; Hydroxyurea 0.2 mM): 53.6 ± 13.7 × 10^4
- Relative Colony Forming Efficiencies ([5]; Hydroxyurea 0.3 mM): 20.8 ± 7.5 × 10^4
- Relative Colony Forming Efficiencies ([5]; Hydroxyurea 0.4 mM): 5.8 ± 1.9 × 10^4
- Relative Colony Forming Efficiencies ([5]; Hydroxyurea 0.5 mM): 4.8 ± 1.9 × 10^4
- Relative Colony Forming Efficiencies ([5]; Hydroxyurea 0.6 mM): 0.7 ± 0.3 × 10^4
- Relative Colony Forming Efficiencies ([5]; Hydroxyurea 0.8 mM): 0.8 ± 0.3 × 10^4
- Relative Colony Forming Efficiencies ([6]; Hydroxyurea 0.1 mM): 1310 ± 319.0 × 10^4
- Relative Colony Forming Efficiencies ([6]; Hydroxyurea 0.4 mM): 14.6 ± 4.0 × 10^4
- Relative Colony Forming Efficiencies ([6]; Hydroxyurea 0.5 mM): 6.5 ± 4.6 × 10^4
- Relative Colony Forming Efficiencies ([6]; Hydroxyurea 0.6 mM): 5.2 ± 3.7 × 10^4
- Relative Colony Forming Efficiencies ([6]; Hydroxyurea 0.8 mM): 2.6 ± 1.4 × 10^4
- Relative Colony Forming Efficiencies ([7]; Hydroxyurea 0.1 mM): 109.3 ± 43 × 10^4
- Relative Colony Forming Efficiencies ([7]; Hydroxyurea 0.2 mM): 22.9 ± 3.1 × 10^4
- Relative Colony Forming Efficiencies ([7]; Hydroxyurea 0.3 mM): 6.6 ± 2.5 × 10^4
- Relative Colony Forming Efficiencies ([7]; Hydroxyurea 0.4 mM): 1.0 ± 0.2 × 10^4
- Relative Colony Forming Efficiencies ([7]; Hydroxyurea 0.5 mM): 0.2 ± 0.1 × 10^4
- Relative Colony Forming Efficiencies ([7]; Hydroxyurea 0.6 mM): 0.3 ± 0.1 × 10^4
- Relative Colony Forming Efficiencies ([7]; Hydroxyurea 0.8 mM): 0.1 ± 0.05 × 10^4
- Relative Colony Forming Efficiencies ([8]; Hydroxyurea 0.1 mM): 830.8 ± 97.0 × 10^4
- Relative Colony Forming Efficiencies ([8]; Hydroxyurea 0.4 mM): 33.7 ± 11.0 × 10^4
- Relative Colony Forming Efficiencies ([8]; Hydroxyurea 0.5 mM): 26.9 ± 11.9 × 10^4
- Relative Colony Forming Efficiencies ([8]; Hydroxyurea 0.6 mM): 12.5 ± 4.6 × 10^4
- Relative Colony Forming Efficiencies ([8]; Hydroxyurea 0.8 mM): 13.2 ± 6.4 × 10^4
- Relative Colony Forming Efficiencies ([9]; Hydroxyurea 0.1 mM): 201.3 ± 27.2 × 10^4
- Relative Colony Forming Efficiencies ([9]; Hydroxyurea 0.2 mM): 35.5 ± 8.4 × 10^4
- Relative Colony Forming Efficiencies ([9]; Hydroxyurea 0.3 mM): 12.6 ± 2.4 × 10^4
- Relative Colony Forming Efficiencies ([9]; Hydroxyurea 0.4 mM): 10.8 ± 4.1 × 10^4
- Relative Colony Forming Efficiencies ([9]; Hydroxyurea 0.5 mM): 12.1 ± 3.9 × 10^4
- Relative Colony Forming Efficiencies ([9]; Hydroxyurea 0.6 mM): 6.6 ± 2.9 × 10^4
- Relative Colony Forming Efficiencies ([9]; Hydroxyurea 0.8 mM): 1.7 ± 1.2 × 10^4
- Relative Colony Forming Efficiencies ([10]; Hydroxyurea 0.3 mM): 1.14 ± 0.12 × 10^4
- Relative Colony Forming Efficiencies ([10]; Hydroxyurea 0.4 mM): 0.71 ± 0.17 × 10^4
